pIC50: −log10 of the molar value. In brackets after ≈: the same amount, converted by molar mass.
Experiments:
[1] = Drug metabolism in rat liver microsomes assessed as CYP3A4-mediated metabolism; type: ADME
[2] = Solubility of compound in fasted state simulated intestinal fluid; type: physicochemical
[3] = Drug metabolism in rat liver microsomes assessed as N-demethylation; type: ADME, Microsome
[4] = Drug metabolism in monkey liver microsomes assessed as CYP3A4-mediated metabolism; type: ADME, Macaca mulatta; conditions: rhesus monkey
[5] = Unbound intrinsic clearance in human hepatocytes assessed as per million cells; type: ADME, cell-based, Hepatocyte
Cytochrome P450 3A4 = Cytochrome P450 3A4 (Homo sapiens, UniProt P08684); experiment: Drug metabolism in human liver microsomes assessed as CYP3A4-mediated metabolism; type: ADME
[6] = Drug metabolism in human liver microsomes assessed as oxidative metabolite formation; type: ADME, Microsome
[7] = Fraction unbound in human plasma; type: ADME, cell-free
[8] = Drug metabolism in human liver microsomes assessed as oxidation of N-methy pyrazole; type: ADME, Microsome
[9] = Solubility of compound in fed state simulated intestinal fluid; type: physicochemical
[10] = Thermodynamic equilibrium solubility of the compound at pH 7.64 phosphate buffer saline by UPLC analysis; type: physicochemical; conditions: read-out: Therm_solubility
[11] = target: T1, Vascular endothelial growth factor receptor 2 (Homo sapiens, UniProt P35968); experiment: Inhibition of VEGFR2 (unknown origin) by cell based assay
[12] = Drug metabolism in human liver microsomes assessed as N-dealkylation; type: ADME, Microsome
[13] = Drug metabolism in rat liver microsomes assessed as N-dealkylation; type: ADME, Microsome
[14] = Passive apparent permeability from apical to basolateral side in RRCK cells; type: ADME, cell-based, Canis lupus familiaris, MDCKII-LE; conditions: dog, MDCK
[15] = Drug metabolism in monkey liver microsomes assessed as N-demethylation; type: ADME, Macaca mulatta, Microsome; conditions: rhesus monkey
[16] = target: T1, Vascular endothelial growth factor receptor 2; experiment: Inhibition of recombinant human VEGFR2 using Ulight-CAGAGAIETDKEYYTVKD as substrate after 60 mins
[17] = Drug metabolism in monkey liver microsomes assessed as oxidative metabolite formation; type: ADME, Macaca mulatta, Microsome; conditions: rhesus monkey
[18] = Fraction unbound in rat plasma; type: ADME, cell-free
physchem = conditions: octanol/water phosphate buffer, pH 7.4
[19] = Drug metabolism in rat liver microsomes assessed as oxidation of N-methy pyrazole; type: ADME, Microsome
[20] = Unbound intrinsic clearance in human liver microsomes assessed as per mg protein; type: ADME, Microsome
[21] = Drug metabolism in rat liver microsomes assessed as oxidative metabolite formation; type: ADME, Microsome
[22] = Drug metabolism in monkey liver microsomes assessed as oxidation of N-methy pyrazole; type: ADME, Macaca mulatta, Microsome; conditions: rhesus monkey
[23] = Drug metabolism in monkey liver microsomes assessed as N-dealkylation; type: ADME, Macaca mulatta, Microsome; conditions: rhesus monkey
[24] = Drug metabolism in human liver microsomes assessed as N-demethylation; type: ADME, Microsome

T1 sequence (P35968 whole entry): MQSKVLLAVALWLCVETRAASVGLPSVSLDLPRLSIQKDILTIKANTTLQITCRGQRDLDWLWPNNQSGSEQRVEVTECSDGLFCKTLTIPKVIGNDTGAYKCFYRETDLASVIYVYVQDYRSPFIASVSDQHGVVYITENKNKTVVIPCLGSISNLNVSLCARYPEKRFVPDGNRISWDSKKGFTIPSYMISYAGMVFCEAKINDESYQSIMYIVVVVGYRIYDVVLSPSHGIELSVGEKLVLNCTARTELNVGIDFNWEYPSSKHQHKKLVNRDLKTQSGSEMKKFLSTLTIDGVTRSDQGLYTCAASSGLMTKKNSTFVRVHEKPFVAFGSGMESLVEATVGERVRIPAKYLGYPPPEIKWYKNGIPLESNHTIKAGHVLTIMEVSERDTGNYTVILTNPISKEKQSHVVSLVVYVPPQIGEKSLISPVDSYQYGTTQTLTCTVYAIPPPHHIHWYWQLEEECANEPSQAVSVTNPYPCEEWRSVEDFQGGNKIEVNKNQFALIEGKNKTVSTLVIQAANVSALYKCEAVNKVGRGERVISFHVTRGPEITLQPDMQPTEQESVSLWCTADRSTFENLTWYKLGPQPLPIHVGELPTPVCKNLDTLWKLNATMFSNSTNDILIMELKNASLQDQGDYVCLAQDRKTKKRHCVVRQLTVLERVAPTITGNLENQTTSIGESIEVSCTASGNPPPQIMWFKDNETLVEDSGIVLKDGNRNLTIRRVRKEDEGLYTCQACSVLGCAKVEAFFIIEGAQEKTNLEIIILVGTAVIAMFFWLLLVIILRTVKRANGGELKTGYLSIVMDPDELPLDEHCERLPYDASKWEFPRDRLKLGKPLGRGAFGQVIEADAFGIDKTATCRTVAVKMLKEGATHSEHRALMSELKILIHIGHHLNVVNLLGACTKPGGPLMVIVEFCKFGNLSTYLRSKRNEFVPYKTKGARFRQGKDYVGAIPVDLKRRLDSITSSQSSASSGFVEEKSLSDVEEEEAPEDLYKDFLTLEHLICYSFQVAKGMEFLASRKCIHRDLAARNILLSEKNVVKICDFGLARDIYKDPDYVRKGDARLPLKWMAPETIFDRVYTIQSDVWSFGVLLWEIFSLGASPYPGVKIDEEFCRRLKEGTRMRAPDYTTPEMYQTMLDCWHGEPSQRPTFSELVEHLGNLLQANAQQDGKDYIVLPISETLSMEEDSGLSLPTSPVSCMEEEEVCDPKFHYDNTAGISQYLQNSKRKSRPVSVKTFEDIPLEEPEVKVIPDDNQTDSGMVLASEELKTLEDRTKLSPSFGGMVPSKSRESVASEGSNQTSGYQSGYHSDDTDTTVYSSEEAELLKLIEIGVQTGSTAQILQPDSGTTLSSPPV
Sequence of Cytochrome P450 3A4 (P08684 whole entry): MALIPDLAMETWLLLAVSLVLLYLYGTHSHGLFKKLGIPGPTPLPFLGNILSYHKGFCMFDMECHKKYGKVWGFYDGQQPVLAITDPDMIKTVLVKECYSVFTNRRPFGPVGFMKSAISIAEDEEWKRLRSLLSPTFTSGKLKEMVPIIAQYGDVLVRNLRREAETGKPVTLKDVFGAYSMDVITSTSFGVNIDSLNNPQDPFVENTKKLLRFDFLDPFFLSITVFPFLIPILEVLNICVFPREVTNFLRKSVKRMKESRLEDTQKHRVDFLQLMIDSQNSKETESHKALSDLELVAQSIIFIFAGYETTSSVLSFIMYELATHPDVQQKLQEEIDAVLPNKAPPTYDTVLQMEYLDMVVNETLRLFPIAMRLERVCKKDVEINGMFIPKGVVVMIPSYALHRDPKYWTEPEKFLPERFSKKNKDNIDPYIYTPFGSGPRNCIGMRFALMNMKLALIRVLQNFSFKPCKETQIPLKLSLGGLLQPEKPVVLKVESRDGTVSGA

Cn1cc(Nc2nccc(N3CC4CC[C@H](C3)N4C(=O)[C@@H]3CC3(F)F)n2)cn1 (single isomer, unassigned)
Drug metabolism [1]: Metabolite_Detected | solubility [2]: > 7000 µg/mL | Drug metabolism [3]: Metabolite_Detected | Drug metabolism [4]: Metabolite_Detected | CL free [5]: < 0.6 µL/min | Drug metabolism (Cytochrome P450 3A4): Metabolite_Detected | Drug metabolism [6]: Metabolite_Detected | fraction unbound [7]: 0.61 | Drug metabolism [8]: Metabolite_Detected | solubility [9]: > 7000 µg/mL | solubility thermodynamic [10]: 4840 µg/mL (≈ 12.4 mM) | pIC50 [11]: < 4.52 | Drug metabolism [12]: Metabolite_Detected | Drug metabolism [13]: Metabolite_Detected | Papp A→B [14]: 18.8 ×10⁻⁶ cm/s | Drug metabolism [15]: Metabolite_Detected | pIC50 [16]: 5.80 | Drug metabolism [17]: Metabolite_Detected | fraction unbound [18]: 0.69 | logD (physchem): 1.61 | Drug metabolism [19]: Metabolite_Detected | CL free [20]: < 10 µL/min | Drug metabolism [21]: Metabolite_Detected | Drug metabolism [22]: Metabolite_Detected | Drug metabolism [23]: Metabolite_Detected | Drug metabolism [24]: Metabolite_Detected

Reference: ChEMBL document CHEMBL4411260, “Dual Inhibition of TYK2 and JAK1 for the Treatment of Autoimmune Diseases: Discovery of (( S)-2,2-Difluorocyclopropyl)((1 R,5 S)-3-(2-((1-methyl-1 H-pyrazol-4-yl)amino)pyrimidin-4-yl)-3,8-diazabicyclo[3.2.1]octan-8-yl)methanone (PF-06700841)” (J Med Chem, 2018)
